What was measured:
[1] = test system: female C57BL/6 adolescent mice; conditions: topical calcitriol; cited from earlier work
Long Evans Rats = assay: Alopecia in chloroleukemic Long Evans rats receiving multi-course chemotherapy; assay type: in vivo, rat; conditions: for extent of alopecia (grade): all rats
Description: Animals were then randomized in four groups.
Treatments were started on day 6 after birth.
Unused preparations were disposed of.

HEKa cells = assay: Real-time PCR Heat Shock Protein array, calcitriol-treated HEKa; assay type: cell-based, human; conditions: 0.1 μg/mL calcitriol, two independent experiments
Procedure: Changes in mRNA levels were evaluated using real-time PCR quantification to assess mRNA levels in preselected subsets containing 80 pathway specific targets (see Appendix). The PCR array analysis utilized two groups of genes—those related to Heat Shock Proteins (SABiosciences), and those related to Neuroscience Ion Channels and Transporters (SABioscience). Cell culture: Primary human epidermal keratinocytes (HEKa) were maintained in Epilife Medium (Cascade Biologics, Inc., Portland Oreg.) along with Human Keratinocyte Growth Supplement (Cascade Biologics, Inc., Portland Oreg.). […] D3 treatment of HEKa cells: […] Vehicle control group of cells were treated with 5 mL media containing 1 μL of ethanol. Cells were harvested 3, 6, 16, 24, 48, or 72 hours after the start of the treatment. RNA isolation: Cells were lysed for RNA isolation at different treatment times using the RNeasy Mini kit (Qiagen, Inc., Valencia Calif.) following the manufacturer's instructions. RNA was quantified by measuring optical density at 260 nm. First Strand Synthesis: […] Real-time PCR: Products from the first strand synthesis were diluted with water, mixed with the SYBR green master mix (SABiosciences., Frederick Md.) and loaded onto PCR arrays. Real time PCR was run on the PCR Arrays (Heat Shock Protein Arrays, and Neuroscience and Ion Channel Arrays) (SABiosciences, Frederick Md.) on a Biorad CFX96. Data analyses were performed using the PCR array data analysis software available on the SABiosciences website.

C=C1/C(=C\C=C2/CCC[C@]3(C)[C@@H]([C@H](C)CCCC(C)(C)O)CC[C@@H]23)C[C@@H](O)C[C@@H]1O [Calcitriol, (1a.3B.5Z.7E)-9,10-secocholesta-5,7,10(19)-triene-1,3,25-triol]
prevention of cyclophosphamide-induced alopecia [1]: failed to demonstrate efficacy
regrowth of pigmented hair shafts [1]: significantly accelerated, enhanced, and quantitatively improved
extent of alopecia (grade) (Long Evans Rats; ADM + paclitaxel + etoposide, first round): did not exhibit any signs of alopecia
rats with alopecia grade 0 (number) (Long Evans Rats; ADM + paclitaxel + etoposide, second round, topical calcitriol, of 32): 32
extent of alopecia (grade) (Long Evans Rats; CTX + ADM + ARA-C, first round): did not exhibit any signs of alopecia
rats with alopecia grade 0 (number) (Long Evans Rats; CTX + ADM + ARA-C, second round, topical calcitriol, of 31): 31
rats with alopecia grade 0 (number) (Long Evans Rats; CTX + ADM + cytarabine (ARA-C), first round, topical calcitriol 2 μg/mL, of 40): 40
extent of alopecia (grade) (Long Evans Rats; CTX + ADM, first round): did not exhibit any signs of alopecia
rats with alopecia grade 0 (number) (Long Evans Rats; CTX + ADM, second round, topical calcitriol, of 20): 20
rats with alopecia grade 0 (number) (Long Evans Rats; CTX + doxorubicin (ADM), first round, topical calcitriol 2 μg/mL, of 40): 40
extent of alopecia (grade) (Long Evans Rats; CTX + paclitaxel + etoposide, first round): did not exhibit any signs of alopecia
rats with alopecia grade 0 (number) (Long Evans Rats; CTX + paclitaxel + etoposide, first round, topical calcitriol 2 μg/mL, of 40): 40
rats with alopecia grade 0 (number) (Long Evans Rats; CTX + paclitaxel + etoposide, second round, topical calcitriol, of 33): 33
extent of alopecia (grade) (Long Evans Rats; CTX, first round of chemotherapy): did not exhibit any signs of alopecia
rats with alopecia grade 0 (number) (Long Evans Rats; CTX, first round of chemotherapy, topical calcitriol 2 μg/mL 0.1 mL daily x6, 0 = no alopecia, of 40): 40
rats with alopecia grade 0 (number) (Long Evans Rats; CTX, second round of chemotherapy, topical calcitriol days 40-45, of 10): 10
rats with alopecia grade 0 (number) (Long Evans Rats; Doxorubicin (ADM) + paclitaxel + etoposide, first round, topical calcitriol 2 μg/mL, of 40): 40
protection from CIA (Long Evans Rats; calcitriol 2 μg/mL, each of five chemotherapy regimens, first and second cycles): 100%
protection from CIA (Long Evans Rats; cyclophosphamide and doxorubicin group, both cycles): 100%
protection from CIA (Long Evans Rats; cyclophosphamide group, both cycles): 100%
protection from CIA (Long Evans Rats; cyclophosphamide, doxorubicin and cytarabine group, both cycles): 100%
protection from CIA (Long Evans Rats; cyclophosphamide, paclitaxel and etoposide group, both cycles): 100%
protection from CIA (Long Evans Rats; doxorubicin, paclitaxel and etoposide group, both cycles): 100%
DNAJC6 mRNA regulation pattern (HEKa cells): Downregulated
HSF4 mRNA regulation pattern (HEKa cells): Upregulated at 48 hours
HSPA2 mRNA regulation pattern (HEKa cells): Upregulated at 48 hours
HSPB1 mRNA regulation pattern (HEKa cells): Down regulated at 48 hours
